In publication PMC6225118 (2018):

What was measured:
[1] = system: 22AG (DNA, G4) AGGGTTAGGGTTAGGGTTAGGG; assay: CD titration, 260 nm, Hill1 fit; settings: 100 mM Na+; apparent; 10 mM lithium cacodylate pH 7.2, 20 °C, 5 µM DNA
[2] = system: F21CTAT (DNA, G4) GGGCTAGGGCTAGGGCTAGGG; assay: FRET melting; settings: 10 mM K+, 90 mM Li+; 10 mM lithium cacodylate pH 7.2; 0.2 µM DNA, 1 µM compound
[3] = system: F21T (DNA, G4) GGGTTAGGGTTAGGGTTAGGG; assay: FRET melting; settings: 10 mM lithium cacodylate pH 7.2, 0.2 µM DNA, 1 µM compound
[4] = system: FBcl2T (DNA, G4) AGGGGCGGGCGCGGGAGGAAGGGGGCGGGAGCGGGGCTG; assay: FRET melting; settings: 10 mM K+, 90 mM Li+; 10 mM lithium cacodylate pH 7.2; 0.2 µM DNA, 1 µM compound
[5] = system: FCEB25L111TT (DNA, G4) AAGGGTGGGTGGGTGGGT; assay: FRET melting; settings: 1 mM K+, 99 mM Li+; 10 mM lithium cacodylate pH 7.2; 0.2 µM DNA, 1 µM compound
[6] = system: FKit2T (DNA, G4) GGGCGGGCGCGAGGGAGGGG; assay: FRET melting; settings: 10 mM K+, 90 mM Li+; 10 mM lithium cacodylate pH 7.2; 0.2 µM DNA, 1 µM compound
[7] = system: FMycT (DNA, G4) TTGAGGGTGGGTAGGGTGGGTAA; assay: FRET melting; settings: 1 mM K+, 99 mM Li+; 10 mM lithium cacodylate pH 7.2; 0.2 µM DNA, 1 µM compound
[8] = system: ds26 (DNA, duplex) CAATCGGATCGAATTCGATCCGATTG; assay: G4-FID, thiazole orange displacement; settings: 10 mM lithium cacodylate pH 7.4, 20 °C, 0.25 µM DNA; up to 10 equivalents
[9] = system: FCEB25wtT (DNA, G4) AAGGGTGGGTGTAAGTGTGGGTGGGT; assay: FRET melting; settings: 1 mM K+, 99 mM Li+; 10 mM lithium cacodylate pH 7.2; 0.2 µM DNA, 1 µM compound
[10] = system: Myc22 (c-myc) (DNA, G4) TGAGGGTGGGTAGGGTGGGTAA; assay: G4-FID, thiazole orange displacement; settings: 10 mM lithium cacodylate pH 7.4, 20 °C; partial displacement, up to 60%
[11] = system: 22AG (DNA, G4) AGGGTTAGGGTTAGGGTTAGGG; assay: CD titration; settings: 100 mM K+; 10 mM lithium cacodylate pH 7.2, 20 °C, 5 µM DNA
[12] = system: 22CTA (DNA, G4) AGGGCTAGGGCTAGGGCTAGGG; assay: G4-FID, thiazole orange displacement; settings: 10 mM lithium cacodylate pH 7.4, 20 °C; partial displacement, saturates at 40–60%

Row | Kd [1] | ΔTm [2] | ΔTm ([3]; 10 mM K+, 90 mM Li+) | ΔTm ([3]; 100 mM Na+) | ΔTm [4] | ΔTm [5] | ΔTm [6] | ΔTm [7] | binding [8] | ΔTm [9] | binding [10] | binding [11] | binding [12] | Compound
1 | 3.3 µM | 4.1 ± 0.1 °C | 10.8 ± 0.4 °C | 16.6 ± 0.8 °C | 2.9 ± 0.7 °C | 0.9 ± 0.8 °C | 5.3 ± 0.4 °C | 3.9 ± 0.9 °C | no | 0.9 ± 0.7 °C | yes | yes | yes | Cc1nc(-c2cccc(-c3noc(-c4cccc(-c5nc(-c6cccc(-c7noc(C)n7)n6)no5)c4)n3)n2)no1
2 | 3.6 µM | 5.5 ± 0.2 °C | 11.5 ± 0.6 °C | 13.8 ± 0.4 °C | – | – | 4.1 ± 0.3 °C | – | no | – | yes | yes | yes | Cc1nc(-c2cccc(-c3noc(-c4cccc(-c5nc(-c6cccc(-c7noc(C)n7)n6)no5)n4)n3)n2)no1
